Measurements as given in patent publication US11684667B2 (priority 2017, dated 2023).

Legend:
BMDMs [1] = type: cell-based, mouse; conditions: N15m1-infected BMDMs, MOI 0.1, 18 hpi; zVAD 20 μM, C16 1 μM
Experimental: Bioanalyzer RNA analysis. Equal amounts of total RNA purified from BMDMs were analyzed on an Agilent 2100 Bioanalyzer using RNA Nano LabChips.

BMDMs [2] = type: cell-based, mouse; conditions: zVAD 20 μM
Experimental: Cell death assays. Cell viability and Caspase 3/7 activity were measured using CellTiter Glo (G7571, Promega) or CaspaseGlo 3/7 (G8091, Promega) respectively, according to the manufacturer's protocol, with modification.
Cell death assays. Cell viability and Caspase 3/7 activity were measured using CellTiter Glo (G7571, Promega) or CaspaseGlo 3/7 (G8091, Promega) respectively, according to the manufacturer's protocol, with modification. Briefly, 3.0×10^5 BMDMs/well were plated in 24-well plates and infected at an MOI of 0.1 for 1 h in serum-free media. Media was replaced with complete media, or for addition of chemical inhibitors, viral inoculum was replaced with completed BMM media containing indicated concentration of inhibitors. Infected BMDMs were incubated for 24h at 37° C./5% CO2. BMDMs were washed twice with 1×PBS and lysed with 100 μL Glo reagent/medium mixture (1:1). 50 μL of cell lysate was used for measuring the luminescence signal. Standard deviation and unpaired t test were performed on technical triplicates and data are representative of three independent experiments. Graphs of cell viability were generated using Prism 7 software (GraphPad Software, Inc.).

zVAD
effect of inhibitor on degradation of host rRNA (BMDMs [1]): not inhibited
prevention of virus-induced cell death by inhibitor (BMDMs [2]; N15m1-infected BMDMs, 24 hpi, Nec-1 25 μM, VX-765 20 μM): prevented virus-induced cell death
effect of inhibitor on caspase 3/7 activation in N15m1-infected BMDMs (BMDMs [2]; C16 1 μM): inhibited by zVAD
